# Reference: patent US20110104274A1, “NOVEL COMPOSITION AND USES THEREOF, IN PARTICULAR COSMETIC USES, FOR TREATING SKIN DEHYDRATION” (COMPAGNIE GERVAIS DANONE, priority 2006, published 2011)
# Key:
# [1] = Bioavailability study: plasma/serum concentrations of catechins (EC, EGC, EGCG) after ingestion; type: in vivo, human; settings: ingestion of 45 mg of catechins
# Experimental: This study evaluates the bioavailability of the combination of catechins with GLA, and in particular the bioavailability of this combination in a yoghurt containing probiotics (see Table 1).
# To evaluate this bioavailability, the plasma concentrations of GLA and of catechins are monitored at different points in time after ingestion of products 1, 2, 3 or 4.
# This study is a norm-centred, randomized, open study. It was carried out with 12 female volunteers (average age 30.8 years; body mass index (BMI) on average 21.4).
# During each assessment visit (V2, V3, V4), the subjects consumed a product at random (among the 4 products). […]
# […] blood samples were taken in the 6 hours following ingestion of the product. The plasma concentration of the active ingredients was measured at 6 points in time (T0, T1 h, T2 h, T3 h, T4 h, T6 h) for measuring the plasma kinetics of GLA and the catechins. […]
# The plasma concentrations of catechins and specifically of epicatechin (EC), epigallocatechin (EGC), and epigallocatechin gallate (EGCG) were determined by HPLC as described by Lee et al. (Lee M J, Prabhu S, Meng X, Li C, Yang C S. An improved method for the determination of green and black tea polyphenols in biomatrices by high-performance liquid chromatography with coulometric array detection. Anal. Biochem. 2000; 279: 164-9) and on the basis of the general knowledge of a person skilled in the art. […]
# [2] = system: promoter of involucrin; settings: high dose of 20 μg/mL; literature; cited from earlier work
# [3] = system: transglutaminase K (TGK) expression in normal human keratinocytes (NHEKs); test: Expression of transglutaminase K (TGK) in NHEKs (immunofluorescence related to number of nuclei); type: cell-based; settings: for Expression of TGK (average): related to negative control
# Experimental: The GLA used is the product L2378 from the company SIGMA. The 4 main forms of catechins forming green tea polyphenol are mixed in the natural proportions: EGCG, EGC, ECG and EC (respective SIGMA references E4143, E3768, E3893 and E4018).
# The range of concentration of GLA tested in vitro was from 1 to 4 μg/ml and that of GTP was from 0.3 to 0.7 μg/ml.
# (§1) The tests are carried out on normal human keratinocytes (NHEKs) in a monolayer. The NHEKs are sown at 10^4/well in serum-free medium (SFM) without calcium, under conditions of temperature of 37° C., CO2 of 5% and relative humidity RH>95%. The NHEKs are incubated like this for 24 hours. The medium is then removed. Then the NHEKs are incubated for 48 hours in the presence of either: • SFM (serum-free medium) with addition of gamma-linolenic acid and green tea polyphenols at a concentration of 1.25, 2.5 or 3.75 μg/mL for GLA and at a concentration of 0.5 μg/ml for GTP; • SFM (serum-free medium) without calcium, which serves as negative control; • SFM (serum-free medium) with addition of calcium (1.50 mM), which serves as positive control.
# The media are removed and a second incubation is carried out in the presence of the 3 types of media.
# The culture medium is removed and then rinsing with PBS is carried out. The cells are then permeabilized and fixed with absolute methanol for 10 minutes at −20° C. Then drying and nonspecific saturation with a PBS-Tween20-milk proteins mixture are carried out, followed by rinsing with PBS. The NHEK cells are labelled with an anti-TGK monoclonal antibody (Reference: TEBU 0175003), then incubated for 1 hour at room temperature and rinsed with PBS.
# Detection is carried out with a GAM-FITC conjugated secondary antibody (Reference: Life Technology A 11001) and the fluorescence is measured using software (Reference: NIKKON; LICIA Software).
# The nuclei are labelled and counted by the Hoechst technique. First, the medium is removed and rinsing with PBS is carried out. Hoechst labelling (Reference: bis-benzimide Sigma B1155) is then used and incubation is carried out for 1 hour at ambient temperature. This is followed by rinsing with PBS, image acquisition and quantification of fluorescence.
# The results are expressed in specific fluorescence of TGK, i.e. they are related to the number of nuclei so as to be independent of the variations in growth of the cells.
# The average expression of TGK corresponds to measurement of the quantity of fluorescence referred to the number of nuclei after Hoechst labelling.
# [4] = system: normal human keratinocytes (NHEKs); test: Cytotoxicity test (MTT) on NHEKs, TGK study; type: cell-based; settings: MTT labelling
# Experimental: as §1
# (§2) The cell viability of the NHEKs is evaluated after labelling with 3-[4,5-dimethylthiazol-2-yl]-2,5-diphenyltetrazolium bromide (MTT) (SIGMA).
# [5] = system: involucrin expression in normal human keratinocytes (NHEKs); test: Expression of involucrin in NHEKs (ELISA); type: cell-based; settings: 0 to 10 μg/mL; NHEKs of groups 1 (abdominal) and 2 (breast); high or low calcium concentration; 48 hours
# Experimental: The GLA used is the product L2378 from the company SIGMA.
# (§3) The NHEKs of the two groups are incubated for 48 hours in the presence of a low ([…]) or a high ([…]) concentration of calcium, and in the presence of either: • SFM (serum-free medium) with addition of 0, 1, 3 and 10 μg/mL of gamma-linolenic acid and/or of green tea extracts, in which the concentration of green tea polyphenol is approximately 88 wt. %; • SFM (serum-free medium) with addition of calcium, which serves as positive control.
# [6] = system: normal human keratinocytes (NHEKs); test: Cytotoxicity test (MTT) on NHEKs, involucrin study; type: cell-based; settings: up to 10 μg/mL, regardless of the calcium concentration
# Experimental: as §3, §2
structure (smiles),measurement,setting,value
"O=C(O[C@@H]1Cc2c(O)cc(O)cc2O[C@@H]1c1cc(O)c(O)c(O)c1)c1cc(O)c(O)c(O)c1 [EGCG, epigallocatechin gallate]",concentration of the individual catechin in the serum,[1],0.04 to 0.33 µmol
same,concentration of the individual catechin in the serum,[1]; mass units,18 to 152 ng/mL
same,effect on the promoter of involucrin,[2],activation
"CCCCC/C=C\C/C=C\C/C=C\CCCCC(=O)O [GLA, gamma-linolenic acid]",Expression of TGK (average),[3]; GLA 1.25 μg/mL,250%
same,Expression of TGK (average),[3]; GLA 3.75 μg/mL,220%
same,expression/activation of TGK after treatment (conclusion in words),[3]; at the concentrations tested (GLA 1.25 and 3.75 μg/mL; GTP 0.5 μg/mL; GLA 2.5 + GTP 0.5 μg/mL),seems to be activated
same,maximum concentration without loss of viability of the NHEKs,[4],5.00 µg/mL
same,expression of involucrin after treatment alone,[5],increased
same,toxicity to the NHEKs,[6],not toxic
"[Ca+2] [Ca++, calcium]",Expression of TGK (average),"[3]; positive control, calcium 1.5 mM",1407%
